Where no end group is shown, it is not given here. The star is where a group is joined. Biotin = O=C1N[C@H]2[C@H](CS[C@H]2CCCCC(=O)*)N1

A short description of this test: Spiropyran modified beads pull-down of biotinylated peptide, residual HRP-streptavidin measured in solution. The test is classed as binding. Particulars: beads incubated with 10 μM peptide, washed twice with PBS, 1 μM HRP-conjugated streptavidin; exposed to light at time=60 minutes. As to the method: FIG. 3 is a line graph representing binding of peptides to beads selectively modified with a spiropyran molecule. The selectively modified beads were incubated with 10 μM of peptide B7, LAGPQMHGK (SEQ ID NO: 62), for the indicate length of time, and then washed twice with phosphate buffered saline (PBS). The beads were when incubated with 1 μM horseradish (HRP)-conjugated streptavidin, and the residual HRP-streptavidin was measured in solution. FIG. 3 illustrates the % absorbance of the beads after the indicated period of time. The higher the absorbance, the higher the concentration of streptavidin in the bulk solution. […]
Wash 1 mL agarose beads with 2 column volumes DMSO (take from bottle in anhydrous fashion). In different container, mix 2.5 mg spiropyran and 80 mg EDC and 100 mg of NHS. Dissolve these compounds in DMSO; wait for 10 minutes at room temp. Add beads (which are now in DMSO) to this mixture. Make sure good mixing/suspension, i.e. enough DMSO to fully suspend the entire matrix. Agitate for 12 hours. Wash modified matrix with DMSO×20 c.v. to wash out free compounds. Remove DMSO with water was ×20 column volumes. Then store in water or 20% ethanol. See FIG. 7 for examples of bead conjugation techniques.

“LAGPQMHGK (LAGPQMHGK(Biotin)) [peptide B7, biotinylated peptide aptamer, biotin covalently linked via the amine on the C-terminal lysine residue]”: the “residual HRP-streptavidin in bulk solution (% absorbance) after exposure to light” value was “released back into the bulk solution”.

Source of the values: US20170349546A1, “Light-Activated Two-Component Protein Binding Matrix” (National University of Singapore, priority 2014, published 2017).
